Assay results as given in PubChem BioAssay AID1259407 (Chemical Carcinogenesis Research Information System (CCRIS), 2018).
Active and inactive are the calls of the source. No rule for the calls is given here.

Test system: CCRIS mutagenicity, Ames/micronucleus/aberration tests
Assay: CCRIS mutagenicity studies
[1] = Test System: AMES SALMONELLA TYPHIMURIUM, Strain/Indicator: TA97, Metabolic Activation: NONE, Method: PREINCUBATION
[2] = Test System: AMES SALMONELLA TYPHIMURIUM, Strain/Indicator: TA102, Metabolic Activation: NONE, Method: PREINCUBATION
[3] = Test System: AMES SALMONELLA TYPHIMURIUM, Strain/Indicator: TA102, Metabolic Activation: RAT, LIVER, S-9, AROCLOR 1254, Method: PREINCUBATION
[4] = Test System: AMES SALMONELLA TYPHIMURIUM, Strain/Indicator: TA100, Metabolic Activation: RAT, LIVER, S-9, AROCLOR 1254, Method: PREINCUBATION
[5] = Test System: AMES SALMONELLA TYPHIMURIUM, Strain/Indicator: TA98, Metabolic Activation: NONE, Method: PREINCUBATION
[6] = Test System: AMES SALMONELLA TYPHIMURIUM, Strain/Indicator: TA100, Metabolic Activation: NONE, Method: PREINCUBATION
[7] = Test System: AMES SALMONELLA TYPHIMURIUM, Strain/Indicator: TA98, Metabolic Activation: NONE, Method: STANDARD PLATE
[8] = Test System: AMES SALMONELLA TYPHIMURIUM, Strain/Indicator: TA100, Metabolic Activation: NONE, Method: STANDARD PLATE
[9] = Test System: AMES SALMONELLA TYPHIMURIUM, Strain/Indicator: TA1535, Metabolic Activation: NONE, Method: STANDARD PLATE
[10] = Test System: AMES SALMONELLA TYPHIMURIUM, Strain/Indicator: TA1537, Metabolic Activation: NONE, Method: STANDARD PLATE
[11] = Test System: AMES SALMONELLA TYPHIMURIUM, Strain/Indicator: TA98, Metabolic Activation: RAT, LIVER, S-9, AROCLOR 1254, Method: STANDARD PLATE
[12] = Test System: AMES SALMONELLA TYPHIMURIUM, Strain/Indicator: TA100, Metabolic Activation: RAT, LIVER, S-9, AROCLOR 1254, Method: STANDARD PLATE

## CCCC(=O)OC1CCCCC1
[1]
  mutagenic call: inactive; negative
Test System: AMES SALMONELLA TYPHIMURIUM, Strain/Indicator: TA97, Metabolic Activation: RAT, LIVER, S-9, AROCLOR 1254, Method: PREINCUBATION
  mutagenic call: inactive; negative
[2]
  mutagenic call: inactive; negative
[3]
  mutagenic call: inactive; negative

## O=C(/C=C/c1ccccc1)OC/C=C/c1ccccc1
Test System: AMES SALMONELLA TYPHIMURIUM, Strain/Indicator: TA1538, Metabolic Activation: NONE, Method: PREINCUBATION
  mutagenic call: active; positive
Test System: Mouse lymphoma, Strain/Indicator: L5178Y (tk+/tk-), Metabolic Activation: None, Method: Suspension/plate
  mutagenic call: active; inconclusive (previous evaluation positive)
Test System: Mouse lymphoma, Strain/Indicator: L5178Y (tk+/tk-), Metabolic Activation: Rat, Liver, S-9, Aroclor 1254, Method: Suspension/plate
  mutagenic call: active; positive

## Fc1ccc2ncccc2c1
End Point: In vitro chromosomal aberrations, Test System: Chinese hamster lung fibroblast cells (CHL/IU), Metabolic Activation: Rat, liver, S-9
  mutagenic call: active; positive, toxicity at 0.1 mg/ml. (information derived from a figure)
End Point: In vitro micronucleus, Test System: Chinese hamster lung fibroblast cells (CHL/IU), Metabolic Activation: Rat, liver, S-9
  mutagenic call: active; positive, cytotoxic at 0.2 mg/ml (information derived from a figure)
Test System: AMES SALMONELLA TYPHIMURIUM, Strain/Indicator: TA100, Metabolic Activation: RAT LIVER S-9, PHENOBARBITAL AND 5,6-BENZOFLAVONE, Method: PREINCUBATION
  mutagenic call: active; positive
[4]
  mutagenic call: active; positive
Test System: AMES SALMONELLA TYPHIMURIUM, Strain/Indicator: TA100, Metabolic Activation: RAT, LIVER, S-9, PHENOBARBITAL AND 5,6-BENZOFLAVONE, Method: PREINCUBATION
  mutagenic call: active; positive
Test System: AMES SALMONELLA TYPHIMURIUM, Strain/Indicator: TA100, Metabolic Activation: RAT, LIVER, S-9, PHENOBARBITAL AND 5,6-NAPHTHOFLAVONE, Method: PREINCUBATION
  mutagenic call: active; positive
Test System: UDS RODENT HEPATOCYTES, Strain/Indicator: THY INCORP (NON-S-PHASE), Metabolic Activation: NONE, Method: AUTORADIOGRAPHY
  mutagenic call: active; positive

## CC12CCC(CC1=O)C2(C)C (configuration not stated) (tested in a mixture with another compound)
End Point: IN VITRO CHROMOSOMAL ABERRATIONS, Test System: SYRIAN HAMSTER EMBRYO (SHE) CELLS, Metabolic Activation: NONE
  mutagenic call: active; positive (structural changes)
End Point: In vitro chromosomal aberrations, Test System: D824 human dental pulp cells, Metabolic Activation: Rat, Liver, Postmitochondrial supernate (5%)
  mutagenic call: inactive; negative

## CCC(C)C=O (configuration not stated)
[5]
  mutagenic call: inactive; negative
Test System: AMES SALMONELLA TYPHIMURIUM, Strain/Indicator: TA98, Metabolic Activation: RAT, LIVER, S-9, AROCLOR 1254, Method: PREINCUBATION
  mutagenic call: inactive; negative
[6]
  mutagenic call: inactive; negative
[4]
  mutagenic call: inactive; negative
[2]
  mutagenic call: inactive; negative
[3]
  mutagenic call: inactive; negative

## Nc1ccc(-c2ccc(N)c(O)c2)cc1O
[7]
  mutagenic call: inactive; negative
Test System: AMES SALMONELLA TYPHIMURIUM, Strain/Indicator: TA98, Metabolic Activation: RAT, LIVER, S-9, AROCLOR, Method: STANDARD PLATE
  mutagenic call: inactive; negative
[8]
  mutagenic call: active; positive (weak)
Test System: AMES SALMONELLA TYPHIMURIUM, Strain/Indicator: TA100, Metabolic Activation: RAT, LIVER, S-9, AROCLOR, Method: STANDARD PLATE
  mutagenic call: active; positive (weak)
[9]
  mutagenic call: inactive; negative
Test System: AMES SALMONELLA TYPHIMURIUM, Strain/Indicator: TA1535, Metabolic Activation: RAT, LIVER, S-9, AROCLOR, Method: STANDARD PLATE
  mutagenic call: inactive; negative
[10]
  mutagenic call: inactive; negative
Test System: AMES SALMONELLA TYPHIMURIUM, Strain/Indicator: TA1537, Metabolic Activation: RAT, LIVER, S-9, AROCLOR, Method: STANDARD PLATE
  mutagenic call: inactive; negative

## CCCC/C=C/C=O
[6]
  mutagenic call: inactive; negative
Test System: AMES SALMONELLA TYPHIMURIUM, Strain/Indicator: TA100, Metabolic Activation: NONE, Method: PREINCUBATION (THREEFOLD CELL DENSITY)
  mutagenic call: active; positive
[4]
  mutagenic call: inactive; negative
Test System: AMES SALMONELLA TYPHIMURIUM, Strain/Indicator: TA100, Metabolic Activation: RAT, LIVER, S-9, AROCLOR 1254, Method: PREINCUBATION (THREEFOLD CELL DENSITY)
  mutagenic call: inactive; negative
Test System: CHINESE HAMSTER V-79, Strain/Indicator: V-79/6-THIOGUANINE, Metabolic Activation: NONE, Method: STANDARD PLATE
  mutagenic call: active; positive
Test System: CHINESE HAMSTER V-79, Strain/Indicator: V-79/OUABAIN, Metabolic Activation: NONE, Method: STANDARD PLATE
  mutagenic call: active; positive

## CCOC(=O)c1cccc2cccnc12
[7]
  mutagenic call: inactive; negative
[11]
  mutagenic call: inactive; negative
[8]
  mutagenic call: inactive; negative
[12]
  mutagenic call: inactive; negative
[9]
  mutagenic call: inactive; negative
Test System: AMES SALMONELLA TYPHIMURIUM, Strain/Indicator: TA1535, Metabolic Activation: RAT, LIVER, S-9, AROCLOR 1254, Method: STANDARD PLATE
  mutagenic call: inactive; negative
[10]
  mutagenic call: inactive; negative
Test System: AMES SALMONELLA TYPHIMURIUM, Strain/Indicator: TA1537, Metabolic Activation: RAT, LIVER, S-9, AROCLOR 1254, Method: STANDARD PLATE
  mutagenic call: inactive; negative

## O=Nc1ccc(O)cc1
Test System: AMES SALMONELLA TYPHIMURIUM, Strain/Indicator: TA97, Metabolic Activation: HAMSTER, LIVER, S-9, AROCLOR 1254 (10 OR 30%), Method: PREINCUBATION
  mutagenic call: inactive; negative
[1]
  mutagenic call: inactive; negative
Test System: AMES SALMONELLA TYPHIMURIUM, Strain/Indicator: TA97, Metabolic Activation: RAT, LIVER, S-9, AROCLOR 1254 (10 OR 30%), Method: PREINCUBATION
  mutagenic call: inactive; negative
Test System: AMES SALMONELLA TYPHIMURIUM, Strain/Indicator: TA98, Metabolic Activation: HAMSTER, LIVER, S-9, AROCLOR 1254 (10%), Method: PREINCUBATION
  mutagenic call: inactive; negative
Test System: AMES SALMONELLA TYPHIMURIUM, Strain/Indicator: TA98, Metabolic Activation: HAMSTER, LIVER, S-9, AROCLOR 1254 (30%), Method: PREINCUBATION
  mutagenic call: active; positive
[5]
  mutagenic call: active; positive
Test System: AMES SALMONELLA TYPHIMURIUM, Strain/Indicator: TA98, Metabolic Activation: RAT, LIVER, S-9, AROCLOR 1254 (10 OR 30%), Method: PREINCUBATION
  mutagenic call: inactive; negative
Test System: AMES SALMONELLA TYPHIMURIUM, Strain/Indicator: TA100, Metabolic Activation: HAMSTER, LIVER, S-9, AROCLOR 1254 (10%), Method: PREINCUBATION
  mutagenic call: inactive; negative
Test System: AMES SALMONELLA TYPHIMURIUM, Strain/Indicator: TA100, Metabolic Activation: HAMSTER, LIVER, S-9, AROCLOR 1254 (30%), Method: PREINCUBATION
  mutagenic call: active; positive
[6]
  mutagenic call: inactive; negative
Test System: AMES SALMONELLA TYPHIMURIUM, Strain/Indicator: TA100, Metabolic Activation: RAT, LIVER, S-9, AROCLOR 1254 (10 OR 30%), Method: PREINCUBATION
  mutagenic call: inactive; negative
Test System: AMES SALMONELLA TYPHIMURIUM, Strain/Indicator: TA1535, Metabolic Activation: HAMSTER, LIVER, S-9, AROCLOR 1254 (10%), Method: PREINCUBATION
  mutagenic call: inactive; negative
Test System: AMES SALMONELLA TYPHIMURIUM, Strain/Indicator: TA1535, Metabolic Activation: NONE, Method: PREINCUBATION
  mutagenic call: inactive; negative
Test System: AMES SALMONELLA TYPHIMURIUM, Strain/Indicator: TA1535, Metabolic Activation: RAT, LIVER, S-9, AROCLOR 1254 (10%), Method: PREINCUBATION
  mutagenic call: inactive; negative

## COc1ccc(C(=O)[C@@H]2O[C@@H]2c2ccccc2)cc1
[7]
  mutagenic call: inactive; negative
[11]
  mutagenic call: inactive; negative
[8]
  mutagenic call: inactive; negative
[12]
  mutagenic call: inactive; negative
